Reference: US6713499B2, “7-Amino-benzothiazole derivatives” (Hoffman-La Roche Inc., priority 2001, dated 2004)

Each molecule was assayed against T1, human adenosine A2A receptor (Homo sapiens, UniProt P29274) (assay: [3H]-SCH-58261 binding assay on membranes of CHO cells expressing the human adenosine A2A receptor). Conditions: [3H]-SCH-58261 (1 nM) displacement, CHO cell membranes, SPA beads, 1 hour at room temperature; Ki by Cheng-Prussoff equation.
T1 construct: expressed in transfected cells; host or cells: CHO cells, Semliki Forest virus expression system; washed membrane pellet used
Method: Human Adenosine A2A Receptor
The human adenosine A2A receptor was recombinantly expressed in chinese hamster ovary (CHO) cells using the semliki forest virus expression system. Cells were harvested, washed twice by centrifugation, homogenised and again washed by centrifugation. The final washed membrane pellet was suspended in a Tris (50 mM) buffer containing 120 mM NaCl, 5 mM KCl, 2 mM CaCl2 and 10 mM MgCl2 (pH 7.4) (buffer A). The [3H]-SCH-58261 (Dionisotti et al., 1997, Br J Pharmacol 121, 353; 1 nM) binding assay was carried out in 96-well plates in the presence of 2.5 μg of membrane protein, 0.5 mg of Ysi-poly-1-lysine SPA beads and 0.1 U adenosine deaminase in a final volume of 200 μl of buffer A. Non-specific binding was defined using xanthine amine congener (XAC; 2 μM). Compounds were tested at 10 concentrations from 10 μM-0.3 nM. All assays were conducted in duplicate and repeated at least two times. Assay plates were incubated for 1 hour at room temperature before centrifugation and then bound ligand determined using a Packard Topcount scintillation counter. IC50 values were calculated using a non-linear curve fitting program and Ki values calculated using, the Cheng-Prussoff equation.

T1 sequence (P29274 whole entry): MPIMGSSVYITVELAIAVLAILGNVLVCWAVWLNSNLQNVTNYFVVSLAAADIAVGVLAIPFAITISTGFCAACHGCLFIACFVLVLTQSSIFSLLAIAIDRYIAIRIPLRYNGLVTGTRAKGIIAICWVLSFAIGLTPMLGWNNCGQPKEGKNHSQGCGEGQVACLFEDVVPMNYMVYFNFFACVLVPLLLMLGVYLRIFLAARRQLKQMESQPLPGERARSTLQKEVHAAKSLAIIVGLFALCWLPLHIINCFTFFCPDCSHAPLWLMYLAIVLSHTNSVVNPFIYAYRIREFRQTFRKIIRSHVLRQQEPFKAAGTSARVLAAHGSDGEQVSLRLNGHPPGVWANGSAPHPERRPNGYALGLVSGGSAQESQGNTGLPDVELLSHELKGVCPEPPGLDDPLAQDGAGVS

Row | hA2 (pKi) | Structure (SMILES)
1 | 7.33 | COc1ccc(N(C)C2CCOCC2)c2sc(NC(=O)c3ccnc(N4CCOCC4)c3)nc12 [Example 38, N-{4-Methoxy-4-[methyl-(tetrahydro-pyran-4-yl)-amino]-benzothiazol-2-yl}-2-morpholin-4-yl-isonicotinamide]

Same assay, conditions: [3H]-SCH-58261 (1 nM) displacement, CHO cell membranes, SPA beads, 1 hour at room temperature; Ki by Cheng-Prussoff equation; read-out: hA2 (pKi) (converted)

Row | Structure (SMILES) | Ki
2 | COCCN(C)c1ccc(OC)c2nc(NC(=O)c3ccnc(N4CCOCC4)c3)sc12 [Example 6, N-{4-Methoxy-7-[(2-methoxy-ethyl)-methyl-amino]-benzothiazol-2-yl}-2-morpholin-4-yl-isonicotinamide] | 52.5 nM
3 | COc1ccc(N(Cc2ccc(C)cc2)C(C)=O)c2sc(NC(=O)c3ccccc3)nc12 [Example 10, N-{7-[Acetyl-(4-methyl-benzyl)-amino]-4-methoxy-benzothiazol-2-yl}-benzamide] | 11.5 nM
4 | COc1ccc(N(C)Cc2ccccc2)c2sc(NC(=O)c3ccc(F)cc3)nc12 [Example 14, N-[7-(Benzyl-methyl-amino)-4-methoxy-benzothiazol-2-yl]-4-fluoro-benzamide] | 38.9 nM
5 | COc1ccc(N(C)Cc2ccccn2)c2sc(NC(=O)c3ccc(F)cc3)nc12 [Example 15, 4-Fluoro-N-[4-methoxy-7-(methyl-pyridin-2-ylmethyl-amino)-benzothiazol-2-yl]-benzamide] | 61.7 nM
6 | COc1ccc(N(C)Cc2ccccc2)c2sc(NC(=O)c3ccnc(C)c3)nc12 [Example 16, N-[7-(Benzyl-methyl-amino)-4-methoxy-benzothiazol-2-yl]-2-methyl-isonicotinamide] | 15.5 nM
7 | COc1ccc(N(Cc2ccccc2)C(C)=O)c2sc(NC(=O)c3ccnc(Br)c3)nc12 [Example 25, N-[7-(Acetyl-benzyl-amino)-4-methoxy-benzothiazol-2-yl]-2-bromo-isonicotinamide] | 52.5 nM
8 | COc1ccc(CN(C)c2ccc(OC)c3nc(NC(=O)c4ccnc(C)c4)sc23)cc1 [Example 30, N-{4-Methoxy-7-[(4-methoxy-benzyl)-methyl-amino]-benzothiazol-2-yl}-2-methyl-isonicotinamide] | 26.3 nM
9 | COc1ccc(N(C)Cc2ccccc2)c2sc(NC(=O)c3ccnc(Br)c3)nc12 [Example 32, N-[7-(Benzyl-methyl-amino)-4-methoxy-benzothiazol-2-yl]-2-bromo-isonicotinamide] | 33.1 nM
10 | COc1ccc(N(C)Cc2ccccc2)c2sc(NC(=O)c3ccnc(N4CCOCC4)c3)nc12 [Example 35, N-[7-(Benzyl-methyl-amino)-4-methoxy-benzothiazol-2-yl]-2-morpholin-4-yl-isonicotinamide] | 11 nM
11 | COc1ccc(N(C)C2CCOCC2)c2sc(NC(=O)c3ccc(F)cc3)nc12 [Example 37, 4-Fluoro-N-{4-methoxy-7-[methyl-(tetrahydro-pyran-4-yl)-amino]-benzothiazol-2-yl}-benzamide] | 56.2 nM

Second part, the molecule after the results:

Row | Ki | Structure (SMILES)
12 | 52.5 nM | COCCN(C)c1ccc(OC)c2nc(NC(=O)c3ccccc3)sc12 [Example 1, N-{4-Methoxy-7-[(2-methoxy-ethyl)-methyl-amino]-benzothiazol-2-yl}-benzamide]
13 | 38 nM | COCCN(C)c1ccc(OC)c2nc(NC(=O)c3ccc(F)cc3)sc12 [Example 2, 4-Fluoro-N-{4-methoxy-7-[(2-methoxy-ethyl)-methyl-amino]-benzothiazol-2-yl}-benzamide]
14 | 37.2 nM | COCCN(C)c1ccc(OC)c2nc(NC(=O)c3ccc(CCl)cc3)sc12 [Example 3, 4-Chloromethyl-N-{4-methoxy-7-[(2-methoxy-ethyl)-methyl-amino]-benzothiazol-2-yl}-benzamide]
15 | 74.1 nM | COc1ccc(N(C)C)c2sc(NC(=O)c3ccc(F)cc3)nc12 [Example 12, N-(7-Dimethylamino-4-methoxy-benzothiazol-2-yl)-4-fluoro-benzamide]
16 | 60.3 nM | COc1ccc(N(C)CC(=O)N(C)C)c2sc(NC(=O)c3ccc(F)cc3)nc12 [Example 17, N-[7-(Dimethylcarbamoylmethyl-methyl-amino)-4-methoxy-benzothiazol-2-yl]-4-fluoro-benzamide]
17 | 13.2 nM | COc1ccc(N(C)C(C)=O)c2sc(NC(=O)c3ccc(F)cc3)nc12 [Example 19, N-[7-(Acetyl-methyl-amino)-4-methoxy-benzothiazol-2-yl]-4-fluoro-benzamide]
18 | 61.7 nM | CCN(CC(=O)N(C)C)c1ccc(OC)c2nc(NC(=O)c3ccc(F)cc3)sc12 [Example 20, N-[7-(Dimethylcarbamoylmethyl-ethyl-amino)-4-methoxy-benzothiazol-2-yl]-4-fluoro-benzamide]
19 | 10 nM | CCN(C(C)=O)c1ccc(OC)c2nc(NC(=O)c3ccc(F)cc3)sc12 [Example 21, N-[7-(Acetyl-ethyl-amino)-4-methoxy-benzothiazol-2-yl]-4-fluoro-benzamide]
20 | 10.7 nM | COc1ccc(N(Cc2ccccc2)C(C)=O)c2sc(NC(=O)c3ccc(F)cc3)nc12 [Example 24, N-[7-(Acetyl-benzyl-amino)-4-methoxy-benzothiazol-2-yl]-4-fluoro-benzamide]
21 | 17.8 nM | COCCN(C(C)=O)c1ccc(OC)c2nc(NC(=O)c3ccc(F)cc3)sc12 [Example 26, N-{7-[Acetyl-(2-methoxy-ethyl)-amino]-4-methoxy-benzothiazol-2-yl}-4-fluoro-benzamide]
22 | 49 nM | COc1ccc(CN(C)c2ccc(OC)c3nc(NC(=O)c4ccc(F)cc4)sc23)cc1 [Example 28, 4-Fluoro-N-{4-methoxy-7-[(4-methoxy-benzyl)-methyl-amino]-benzothiazol-2-yl}-benzamide]
